Data: US20240132521A1, “COMPOUNDS AND METHODS FOR MODULATING HER2” (Iambic Therapeutics, Inc., priority 2022, published 2024)
Like-named read-outs stand apart in the source and are kept apart here.

Key:
Format in all cases: cell-based
[1] = molecular target: BaF3_HER2YVMA cells (Homo sapiens, UniProt P04626, DUP772-775, cells depend on it); assay: Cell growth inhibition assay (CellTiterGlo), BaF3_HER2YVMA
[2] = molecular target: BaF3_HER2WT cells (Homo sapiens, UniProt P04626); assay: Cell growth inhibition assay (CellTiterGlo), BaF3_HER2WT
[3] = molecular target: BaF3_EGFRWT cells (Homo sapiens, UniProt P00533); assay: Cell growth inhibition assay (CellTiterGlo), BaF3_EGFRWT
[4] = cell growth inhibition, 3 days treatment, read-out: HER2 - YVMA IC50
[5] = cell growth inhibition, 3 days treatment, read-out: HER2 WT IC50
[6] = cell growth inhibition, 80 ng/mL EGF, 3 days treatment, read-out: EGFR WT IC50
[7] = 3-day treatment, CellTiterGlo, read-out: Cell growth inhibition activity, HER2 - YVMA
[8] = 3-day treatment, CellTiterGlo, read-out: Cell growth inhibition activity, HER2 WT
[9] = 3-day treatment, CellTiterGlo, read-out: Cell growth inhibition activity, EGFR WT

Sequence of BaF3_EGFRWT cells (P00533 whole entry, change not shown): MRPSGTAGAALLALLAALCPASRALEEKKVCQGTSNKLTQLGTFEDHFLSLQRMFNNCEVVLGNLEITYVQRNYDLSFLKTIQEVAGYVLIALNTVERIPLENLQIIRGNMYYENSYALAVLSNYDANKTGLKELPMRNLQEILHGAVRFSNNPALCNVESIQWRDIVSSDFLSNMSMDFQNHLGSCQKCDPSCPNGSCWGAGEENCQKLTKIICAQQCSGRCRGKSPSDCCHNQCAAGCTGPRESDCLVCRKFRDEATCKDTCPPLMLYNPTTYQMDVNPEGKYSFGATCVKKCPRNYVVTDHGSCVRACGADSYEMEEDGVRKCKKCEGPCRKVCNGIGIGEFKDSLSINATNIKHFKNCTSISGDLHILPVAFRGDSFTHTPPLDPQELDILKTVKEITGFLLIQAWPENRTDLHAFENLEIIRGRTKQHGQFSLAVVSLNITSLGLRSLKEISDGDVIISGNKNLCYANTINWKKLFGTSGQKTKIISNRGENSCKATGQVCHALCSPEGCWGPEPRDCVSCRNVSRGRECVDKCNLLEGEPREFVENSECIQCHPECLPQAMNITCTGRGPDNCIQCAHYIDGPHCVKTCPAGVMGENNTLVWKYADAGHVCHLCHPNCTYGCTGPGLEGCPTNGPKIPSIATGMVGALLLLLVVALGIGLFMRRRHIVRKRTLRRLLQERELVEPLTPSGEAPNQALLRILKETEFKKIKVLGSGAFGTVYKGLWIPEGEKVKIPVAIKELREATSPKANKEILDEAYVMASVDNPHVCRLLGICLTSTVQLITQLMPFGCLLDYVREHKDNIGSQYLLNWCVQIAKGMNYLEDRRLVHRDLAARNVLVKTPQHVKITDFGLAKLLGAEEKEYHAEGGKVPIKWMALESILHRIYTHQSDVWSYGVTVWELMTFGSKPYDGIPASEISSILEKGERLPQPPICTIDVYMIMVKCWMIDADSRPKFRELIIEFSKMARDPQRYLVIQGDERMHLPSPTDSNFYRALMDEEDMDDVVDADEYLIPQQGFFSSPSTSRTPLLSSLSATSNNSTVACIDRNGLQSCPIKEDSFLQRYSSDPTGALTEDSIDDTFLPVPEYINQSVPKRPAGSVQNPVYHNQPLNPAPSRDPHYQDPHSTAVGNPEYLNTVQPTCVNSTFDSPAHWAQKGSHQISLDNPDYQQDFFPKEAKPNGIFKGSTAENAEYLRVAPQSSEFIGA
Sequence of BaF3_HER2YVMA cells (P04626 with tags, fused parts or gaps DUP772-775): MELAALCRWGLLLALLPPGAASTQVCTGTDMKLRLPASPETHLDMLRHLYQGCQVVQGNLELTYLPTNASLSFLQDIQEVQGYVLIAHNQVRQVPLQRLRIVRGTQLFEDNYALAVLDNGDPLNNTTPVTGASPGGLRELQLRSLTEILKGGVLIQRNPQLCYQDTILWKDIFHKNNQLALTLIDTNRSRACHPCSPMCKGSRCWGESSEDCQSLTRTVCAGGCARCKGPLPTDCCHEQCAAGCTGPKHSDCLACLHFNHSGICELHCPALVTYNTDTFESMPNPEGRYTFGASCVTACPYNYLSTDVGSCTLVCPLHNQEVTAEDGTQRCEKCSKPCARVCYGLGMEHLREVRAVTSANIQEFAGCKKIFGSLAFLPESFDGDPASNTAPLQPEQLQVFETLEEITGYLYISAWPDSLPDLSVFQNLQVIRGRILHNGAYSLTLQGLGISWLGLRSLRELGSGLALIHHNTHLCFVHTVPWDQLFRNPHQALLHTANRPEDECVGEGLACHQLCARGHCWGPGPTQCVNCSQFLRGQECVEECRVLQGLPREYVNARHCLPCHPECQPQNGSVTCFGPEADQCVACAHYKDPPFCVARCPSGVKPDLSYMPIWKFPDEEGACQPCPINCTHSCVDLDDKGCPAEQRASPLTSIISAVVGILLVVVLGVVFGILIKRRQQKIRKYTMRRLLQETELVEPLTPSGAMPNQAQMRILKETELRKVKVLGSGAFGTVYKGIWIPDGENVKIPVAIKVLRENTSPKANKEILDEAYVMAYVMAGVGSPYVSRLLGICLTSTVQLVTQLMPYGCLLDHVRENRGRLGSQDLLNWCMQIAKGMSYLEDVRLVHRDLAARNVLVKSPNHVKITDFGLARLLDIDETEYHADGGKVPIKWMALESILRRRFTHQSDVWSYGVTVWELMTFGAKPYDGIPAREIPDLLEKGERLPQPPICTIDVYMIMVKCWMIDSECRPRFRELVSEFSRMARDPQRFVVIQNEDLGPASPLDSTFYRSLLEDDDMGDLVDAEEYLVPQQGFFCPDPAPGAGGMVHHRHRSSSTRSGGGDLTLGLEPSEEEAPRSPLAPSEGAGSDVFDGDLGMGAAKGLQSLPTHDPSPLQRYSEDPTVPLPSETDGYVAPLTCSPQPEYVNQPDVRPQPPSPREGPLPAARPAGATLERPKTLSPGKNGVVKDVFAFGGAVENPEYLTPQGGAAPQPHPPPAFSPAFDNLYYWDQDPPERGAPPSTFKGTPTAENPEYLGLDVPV
Sequence of BaF3_HER2WT cells (P04626 whole entry, change not shown): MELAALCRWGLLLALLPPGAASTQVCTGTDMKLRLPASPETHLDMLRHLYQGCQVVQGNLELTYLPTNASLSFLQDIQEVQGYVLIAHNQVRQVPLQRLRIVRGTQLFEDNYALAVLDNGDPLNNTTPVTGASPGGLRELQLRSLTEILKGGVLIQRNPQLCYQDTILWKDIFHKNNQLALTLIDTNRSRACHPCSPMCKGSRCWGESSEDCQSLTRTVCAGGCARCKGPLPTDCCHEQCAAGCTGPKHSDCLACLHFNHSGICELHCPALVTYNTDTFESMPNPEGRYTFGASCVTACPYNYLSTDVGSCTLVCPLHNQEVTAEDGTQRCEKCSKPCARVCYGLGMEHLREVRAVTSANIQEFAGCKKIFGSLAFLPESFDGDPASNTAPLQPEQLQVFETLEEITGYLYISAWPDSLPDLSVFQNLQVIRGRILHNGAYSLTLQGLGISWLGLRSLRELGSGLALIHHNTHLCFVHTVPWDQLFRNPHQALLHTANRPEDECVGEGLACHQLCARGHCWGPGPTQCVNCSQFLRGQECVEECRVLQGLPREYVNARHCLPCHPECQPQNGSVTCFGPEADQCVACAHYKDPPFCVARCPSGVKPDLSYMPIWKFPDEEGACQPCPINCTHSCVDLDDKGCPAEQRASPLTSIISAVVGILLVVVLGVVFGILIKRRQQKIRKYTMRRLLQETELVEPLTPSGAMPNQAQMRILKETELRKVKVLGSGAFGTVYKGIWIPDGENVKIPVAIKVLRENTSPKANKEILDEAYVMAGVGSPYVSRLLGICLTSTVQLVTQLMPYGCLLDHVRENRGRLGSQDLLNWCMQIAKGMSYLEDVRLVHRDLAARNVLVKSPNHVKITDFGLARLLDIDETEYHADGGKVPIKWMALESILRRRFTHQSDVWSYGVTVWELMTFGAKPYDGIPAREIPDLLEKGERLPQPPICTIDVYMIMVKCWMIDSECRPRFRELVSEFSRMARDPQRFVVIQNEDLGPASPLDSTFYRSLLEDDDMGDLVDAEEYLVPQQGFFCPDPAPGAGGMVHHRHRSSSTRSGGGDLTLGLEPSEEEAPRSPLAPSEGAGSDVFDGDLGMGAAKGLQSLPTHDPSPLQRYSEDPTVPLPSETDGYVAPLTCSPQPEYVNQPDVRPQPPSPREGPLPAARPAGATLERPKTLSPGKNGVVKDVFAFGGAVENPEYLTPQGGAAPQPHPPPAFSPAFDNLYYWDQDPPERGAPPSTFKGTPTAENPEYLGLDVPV

SMILES | GI50 [1, 4] [nM] | GI50 [2, 5] [nM] | GI50 [3, 6] [nM] | GI50 [1, 7] [nM] | GI50 [2, 8] [nM] | GI50 [3, 9] [nM]
Cc1cc(Nc2ncnn3ccc(C4CC5CCC4CN5C(=O)/C=C/CN(C)C)c23)ccc1Oc1ccn2ncnc2c1 (single isomer, unassigned) [Examples 137 and 138, second eluting isomer, (E)-1-(5-(4-((4-([1,2,4]triazolo[1,5-a]pyridin-7-yloxy)-3-methylphenyl)amino)pyrrolo[2,1-f][1,2,4]triazin-5-yl)-2-azabicyclo[2.2.2]octan-2-yl)-4-(dimethylamino)but-2-en-1-one] | 1500 to 5000 | 500 to 1500 | 1500 to 5000 | – | – | –
C=CC(=O)N1CC2CCC1CC2c1ccn2ncnc(Nc3ccc(Oc4ccn5ncnc5c4)c(C)c3)c12 (single isomer, unassigned) [Examples 139 and 140, first eluting isomer, 1-(5-(4-((4-([1,2,4]triazolo[1,5-a]pyridin-7-yloxy)-3-methylphenyl)amino)pyrrolo[2,1-f][1,2,4]triazin-5-yl)-2-azabicyclo[2.2.2]octan-2-yl)prop-2-en-1-one] | < 200 | < 200 | 1500 to 5000 | – | – | –
C=CC(=O)N1CC2CCC1CC2c1ccn2ncnc(Nc3ccc(Oc4ccn5ncnc5c4)c(C)c3)c12 (single isomer, unassigned) [Examples 139 and 140, second eluting isomer, 1-(5-(4-((4-([1,2,4]triazolo[1,5-a]pyridin-7-yloxy)-3-methylphenyl)amino)pyrrolo[2,1-f][1,2,4]triazin-5-yl)-2-azabicyclo[2.2.2]octan-2-yl)prop-2-en-1-one] | 1500 to 5000 | 500 to 1500 | 1500 to 5000 | – | – | –
C=C(CN(C)C)C(=O)N1CCCC(c2ccn3ncnc(Nc4ccc(Oc5ccn6ncnc6c5)c(C)c4)c23)CC1 (single isomer, unassigned) [Examples 143 and 144, first eluting isomer, 1-(4-(4-((4-([1,2,4]triazolo[1,5-a]pyridin-7-yloxy)-3-methylphenyl)amino)pyrrolo[2,1-f][1,2,4]triazin-5-yl)azepan-1-yl)-2-((dimethylamino)methyl)prop-2-en-1-one] | 500 to 1500 | < 200 | 1500 to 5000 | – | – | –
C=C(CN(C)C)C(=O)N1CCCC(c2ccn3ncnc(Nc4ccc(Oc5ccn6ncnc6c5)c(C)c4)c23)CC1 (single isomer, unassigned) [Examples 143 and 144, second eluting isomer, 1-(4-(4-((4-([1,2,4]triazolo[1,5-a]pyridin-7-yloxy)-3-methylphenyl)amino)pyrrolo[2,1-f][1,2,4]triazin-5-yl)azepan-1-yl)-2-((dimethylamino)methyl)prop-2-en-1-one] | < 200 | < 200 | 1500 to 5000 | – | – | –
Cc1cc(Nc2ncnn3ccc(C4CC5CCC4CN5C(=O)/C=C/CN(C)C)c23)ccc1Oc1ccn2ncnc2c1 (single isomer, unassigned; first eluting) [Examples 137 and 138, first eluting isomer] | 200 to 500 | < 200 | 1500 to 5000 | – | – | –
C=CC(=O)N1CC(c2ccn3ncnc(Nc4ccc(Oc5ccn6ncnc6c5)c(C)c4)c23)C1 [Example 3, 1-(3-(4-((4-([1,2,4]triazolo[1,5-a]pyridin-7-yloxy)-3-methylphenyl)amino)pyrrolo[2,1-f][1,2,4]triazin-5-yl)azetidin-1-yl)prop-2-en-1-one] | – | – | – | < 200 | < 200 | 500 to 1500
C=CC(=O)N1CCCC(c2ccn3ncnc(Nc4ccc(Oc5ccn6ncnc6c5)c(C)c4)c23)CC1 (stereo not drawn) [Example 9, 1-(4-(4-((4-([1,2,4]triazolo[1,5-a]pyridin-7-yloxy)-3-methylphenyl)amino)pyrrolo[2,1-f][1,2,4]triazin-5-yl)azepan-1-yl)prop-2-en-1-one] | – | – | – | < 200 | < 200 | 200 to 500
C=CC(=O)N1CC2(C1)CN(c1ccn3ncnc(Nc4cnc(Oc5ccn6ncnc6c5)c(Cl)c4)c13)C2 [Example 15, 1-(6-(4-((6-([1,2,4]triazolo[1,5-a]pyridin-7-yloxy)-5-chloropyridin-3-yl)amino)pyrrolo[2,1-f][1,2,4]triazin-5-yl)-2,6-diazaspiro[3.3]heptan-2-yl)prop-2-en-1-one] | – | – | – | > 5000 | 1500 to 5000 | 1500 to 5000
C=CC(=O)N1CC2(CC(c3ccn4ncnc(Nc5ccc(Oc6ccn7ncnc7c6)c(C)c5)c34)C2)C1 [Example 17, 1-(6-(4-((4-([1,2,4]triazolo[1,5-a]pyridin-7-yloxy)-3-methylphenyl)amino)pyrrolo[2,1-f][1,2,4]triazin-5-yl)-2-azaspiro[3.3]heptan-2-yl)prop-2-en-1-one] | – | – | – | < 200 | < 200 | 1500 to 5000
C=C(C(=O)O)C(=O)N1CCC(c2ccn3ncnc(Nc4ccc(Oc5ccn6ncnc6c5)c(C)c4)c23)CC1 [Example 20, 2-(4-(4-((4-([1,2,4]triazolo[1,5-a]pyridin-7-yloxy)-3-methylphenyl)amino)pyrrolo[2,1-f][1,2,4]triazin-5-yl)piperidine-1-carbonyl)acrylic acid] | – | – | – | 1500 to 5000 | 1500 to 5000 | 1500 to 5000
Cc1cc(Nc2ncnn3ccc(C4CCN(C(=O)/C=C/CN5CCN(C)CC5)CC4)c23)ccc1Oc1ccn2ncnc2c1 [Example 24, (E)-1-(4-(4-((4-([1,2,4]triazolo[1,5-a]pyridin-7-yloxy)-3-methylphenyl)amino)pyrrolo[2,1-f][1,2,4]triazin-5-yl)piperidin-1-yl)-4-(4-methylpiperazin-1-yl)but-2-en-1-one] | – | – | – | 500 to 1500 | < 200 | 1500 to 5000
Cc1cc(Nc2ncnn3ccc(C4CCN(C(=O)/C=C/[C@H]5CCCN5C)CC4)c23)ccc1Oc1ccn2ncnc2c1 [Example 25, (R,E)-1-(4-(4-((4-([1,2,4]triazolo[1,5-a]pyridin-7-yloxy)-3-methylphenyl)amino)pyrrolo[2,1-f][1,2,4]triazin-5-yl)piperidin-1-yl)-3-(1-methylpyrrolidin-2-yl)prop-2-en-1-one] | – | – | – | < 200 | < 200 | 1500 to 5000
C=C(F)C(=O)N1CC=C(c2ccn3ncnc(Nc4ccc(Oc5ccn6ncnc6c5)c(C)c4)c23)CC1 [Example 26, 1-(4-(4-((4-([1,2,4]triazolo[1,5-a]pyridin-7-yloxy)-3-methylphenyl)amino)pyrrolo[2,1-f][1,2,4]triazin-5-yl)-3,6-dihydropyridin-1(2H)-yl)-2-fluoroprop-2-en-1-one] | – | – | – | 1500 to 5000 | 200 to 500 | 1500 to 5000

Further lines, results first:

GI50 [1, 4] [nM] | GI50 [2, 5] [nM] | GI50 [3, 6] [nM] | GI50 [1, 7] [nM] | GI50 [2, 8] [nM] | GI50 [3, 9] [nM] | SMILES
200 to 500 | < 200 | 1500 to 5000 | – | – | – | Cc1cc(Nc2ncnn3ccc(C4CCCN(C(=O)C(F)Cl)CC4)c23)ccc1Oc1ccn2ncnc2c1 (single isomer, unassigned) [Examples 145, 146, 147 and 148, first eluting isomer, 1-(4-(4-((4-([1,2,4]triazolo[1,5-a]pyridin-7-yloxy)-3-methylphenyl)amino)pyrrolo[2,1-f][1,2,4]triazin-5-yl)azepan-1-yl)-2-chloro-2-fluoroethan-1-one]
500 to 1500 | 200 to 500 | 1500 to 5000 | – | – | – | Cc1cc(Nc2ncnn3ccc([C@@H]4CCCN(C(=O)[C@H](F)Cl)CC4)c23)ccc1Oc1ccn2ncnc2c1 (single isomer, unassigned) [Examples 145, 146, 147 and 148, fourth eluting isomer]
< 200 | < 200 | 500 to 1500 | – | – | – | Cc1cc(Nc2ncnn3ccc(C4CCCN(C(=O)C(F)Cl)CC4)c23)ccc1Oc1ccn2ncnc2c1 (single isomer, unassigned) [Examples 145, 146, 147 and 148, second eluting isomer, 1-(4-(4-((4-([1,2,4]triazolo[1,5-a]pyridin-7-yloxy)-3-methylphenyl)amino)pyrrolo[2,1-f][1,2,4]triazin-5-yl)azepan-1-yl)-2-chloro-2-fluoroethan-1-one]
500 to 1500 | 200 to 500 | 1500 to 5000 | – | – | – | Cc1cc(Nc2ncnn3ccc(C4CCCN(C(=O)C(F)Cl)CC4)c23)ccc1Oc1ccn2ncnc2c1 (single isomer, unassigned) [Examples 145, 146, 147 and 148, third eluting isomer, 1-(4-(4-((4-([1,2,4]triazolo[1,5-a]pyridin-7-yloxy)-3-methylphenyl)amino)pyrrolo[2,1-f][1,2,4]triazin-5-yl)azepan-1-yl)-2-chloro-2-fluoroethan-1-one]
< 200 | < 200 | 1500 to 5000 | – | – | – | Cc1cc(Nc2ncnn3ccc(C4CN(C(=O)/C=C/C5CCCN5C)C4)c23)ccc1Oc1ccn2ncnc2c1 (single isomer, unassigned) [Examples 171 and 172, second eluting isomer, (E)-1-(3-(4-((4-([1,2,4]triazolo[1,5-a]pyridin-7-yloxy)-3-methylphenyl)amino)pyrrolo[2,1-f][1,2,4]triazin-5-yl)azetidin-1-yl)-3-(1-methylpyrrolidin-2-yl)prop-2-en-1-one]
1500 to 5000 | 200 to 500 | 1500 to 5000 | – | – | – | Cc1cc(Nc2ncnn3ccc(C4CCN(C(=O)[C@H](F)Cl)CC4)c23)ccc1Oc1ccn2ncnc2c1 (single isomer, unassigned) [Examples 173 and 174, first eluting isomer]
< 200 | < 200 | 1500 to 5000 | – | – | – | Cc1cc(Nc2ncnn3ccc(C4CCN(C(=O)[C@@H](F)Cl)CC4)c23)ccc1Oc1ccn2ncnc2c1 (single isomer, unassigned; second eluting) [Examples 173 and 174, second eluting isomer, (5)-1-(4-(4-((4-([1,2,4]triazolo[1,5-a]pyridin-7-yloxy)-3-methylphenyl)amino)pyrrolo[2,1-f][1,2,4]triazin-5-yl)piperidin-1-yl)-2-chloro-2-fluoroethan-1-one]
